These compounds were tested on Key Grass and Sedge Weeds as well as Grass Crops (assay: Post-Emergent Test II (Table 6)). Conditions: post-emergence, 336 h, ZEAMX: maize, corn (Zea mays), 140 g ai/ha, 14 days after application, read-out: Visual Growth Reduction (%) 14 Days After Application ZEAMX.
Type: in vivo
Procedure, shortened: (§1)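 Visual injury ratings (0 = no injury, 100 = complete kill) taken 14 days after treatment, relative to untreated controls. Compounds, in an acetone/DMSO aqueous carrier with crop oil and surfactant, were applied by track sprayer at 187 L/ha, in a twofold dilution series from the top rate, to plants at the first to second true-leaf stage.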
`COC(=O)c1nc(-c2ccc(I)c(F)c2C)cc(N)c1Cl` [Compound 25, methyl 4-amino-3-chloro-6-(3-fluoro-4-Iodo-2-methylphenyl)picolinate] gave a pest or weed control at 140 g/ha of 0 to 29%.

The compounds below were run on Key Broadleaf Weed and Crop Species (assay: Post-Emergent Test II (Table 5)). Conditions: Abutilon theophrasti, post-emergence, 336 h, ABUTH: velvetleaf (Abutilon theophrasti), application rate 70 (kg ai/ha; footnote: g ai/ha), read-out: Visual Growth Reduction (%) 14 Days After Application ABUTH.
Type: in vivo
Procedure, shortened: as §1
`COC(=O)c1nc(-c2ccc(I)c(F)c2C)cc(N)c1Cl` [Compound 25, methyl 4-amino-3-chloro-6-(3-fluoro-4-Iodo-2-methylphenyl)picolinate] gave a pest or weed control at 70 g/ha of 95 to 100%.

Same assay, conditions: Abutilon theophrasti, post-emergence, 336 h, ABUTH: velvetleaf (Abutilon theophrasti), application rate 140 (kg ai/ha; footnote: g ai/ha), read-out: Visual Growth Reduction (%) 14 Days After Application ABUTH
`COC(=O)c1nc(-c2ccc(I)c(F)c2C)cc(N)c1Cl` [Compound 25, methyl 4-amino-3-chloro-6-(3-fluoro-4-Iodo-2-methylphenyl)picolinate] gave a pest or weed control at 140 g/ha of 95 to 100%.

Same assay, conditions: Amaranthus retroflexus, post-emergence, 336 h, AMARE: redroot pigweed (Amaranthus retroflexus), application rate 70 (kg ai/ha; footnote: g ai/ha), read-out: Visual Growth Reduction (%) 14 Days After Application AMARE
In the case of `COC(=O)c1nc(-c2ccc(I)c(F)c2C)cc(N)c1Cl` [Compound 25, methyl 4-amino-3-chloro-6-(3-fluoro-4-Iodo-2-methylphenyl)picolinate], the pest or weed control at 70 g/ha is reported as 95 to 100%.

Same assay, conditions: Amaranthus retroflexus, post-emergence, 336 h, AMARE: redroot pigweed (Amaranthus retroflexus), application rate 140 (kg ai/ha; footnote: g ai/ha), read-out: Visual Growth Reduction (%) 14 Days After Application AMARE
For `COC(=O)c1nc(-c2ccc(I)c(F)c2C)cc(N)c1Cl` [Compound 25, methyl 4-amino-3-chloro-6-(3-fluoro-4-Iodo-2-methylphenyl)picolinate], the pest or weed control at 140 g/ha was 95 to 100%.

Same assay, conditions: Brassica napus, post-emergence, 336 h, BRSSS: oilseed rape, canola (Brassica napus), application rate 70 (kg ai/ha; footnote: g ai/ha), read-out: Visual Growth Reduction (%) 14 Days After Application BRSSS
`COC(=O)c1nc(-c2ccc(I)c(F)c2C)cc(N)c1Cl` [Compound 25, methyl 4-amino-3-chloro-6-(3-fluoro-4-Iodo-2-methylphenyl)picolinate] showed a pest or weed control at 70 g/ha of 60 to 74%.

Same assay, conditions: Brassica napus, post-emergence, 336 h, BRSSS: oilseed rape, canola (Brassica napus), application rate 140 (kg ai/ha; footnote: g ai/ha), read-out: Visual Growth Reduction (%) 14 Days After Application BRSSS
For `COC(=O)c1nc(-c2ccc(I)c(F)c2C)cc(N)c1Cl` [Compound 25, methyl 4-amino-3-chloro-6-(3-fluoro-4-Iodo-2-methylphenyl)picolinate], the pest or weed control at 140 g/ha was 75 to 84%.

Same assay, conditions: Chenopodium album, post-emergence, 336 h, CHEAL: lambsquarters (Chenopodium album), application rate 70 (kg ai/ha; footnote: g ai/ha), read-out: Visual Growth Reduction (%) 14 Days After Application CHEAL
In the case of `COC(=O)c1nc(-c2ccc(I)c(F)c2C)cc(N)c1Cl` [Compound 25, methyl 4-amino-3-chloro-6-(3-fluoro-4-Iodo-2-methylphenyl)picolinate], the pest or weed control at 70 g/ha is reported as 85 to 94%.

Same assay, conditions: Chenopodium album, post-emergence, 336 h, CHEAL: lambsquarters (Chenopodium album), application rate 140 (kg ai/ha; footnote: g ai/ha), read-out: Visual Growth Reduction (%) 14 Days After Application CHEAL
In the case of `COC(=O)c1nc(-c2ccc(I)c(F)c2C)cc(N)c1Cl` [Compound 25, methyl 4-amino-3-chloro-6-(3-fluoro-4-Iodo-2-methylphenyl)picolinate], the pest or weed control at 140 g/ha is reported as 85 to 94%.

Same assay, conditions: Euphorbia heterophylla, post-emergence, 336 h, EPHHL: wild poinsettia (Euphorbia heterophylla), application rate 70 (kg ai/ha; footnote: g ai/ha), read-out: Visual Growth Reduction (%) 14 Days After Application EPHHL
Work on `COC(=O)c1nc(-c2ccc(I)c(F)c2C)cc(N)c1Cl` [Compound 25, methyl 4-amino-3-chloro-6-(3-fluoro-4-Iodo-2-methylphenyl)picolinate] yielded a pest or weed control at 70 g/ha of 0 to 29%.

Same assay, conditions: Euphorbia heterophylla, post-emergence, 336 h, EPHHL: wild poinsettia (Euphorbia heterophylla), application rate 140 (kg ai/ha; footnote: g ai/ha), read-out: Visual Growth Reduction (%) 14 Days After Application EPHHL
`COC(=O)c1nc(-c2ccc(I)c(F)c2C)cc(N)c1Cl` [Compound 25, methyl 4-amino-3-chloro-6-(3-fluoro-4-Iodo-2-methylphenyl)picolinate] gave a pest or weed control at 140 g/ha of 0 to 29%.

Same assay, conditions: Helianthus annuus, post-emergence, 336 h, HELAN: sunflower (Helianthus annuus), application rate 70 (kg ai/ha; footnote: g ai/ha), read-out: Visual Growth Reduction (%) 14 Days After Application HELAN
`COC(=O)c1nc(-c2ccc(I)c(F)c2C)cc(N)c1Cl` [Compound 25, methyl 4-amino-3-chloro-6-(3-fluoro-4-Iodo-2-methylphenyl)picolinate] gave a pest or weed control at 70 g/ha of 60 to 74%.

Same assay, conditions: Helianthus annuus, post-emergence, 336 h, HELAN: sunflower (Helianthus annuus), application rate 140 (kg ai/ha; footnote: g ai/ha), read-out: Visual Growth Reduction (%) 14 Days After Application HELAN
With `COC(=O)c1nc(-c2ccc(I)c(F)c2C)cc(N)c1Cl` [Compound 25, methyl 4-amino-3-chloro-6-(3-fluoro-4-Iodo-2-methylphenyl)picolinate] the pest or weed control at 140 g/ha was 75 to 84%.

Same assay, conditions: Viola tricolor, post-emergence, 336 h, VIOTR: wild pansy (Viola tricolor), application rate 70 (kg ai/ha; footnote: g ai/ha), read-out: Visual Growth Reduction (%) 14 Days After Application VIOTR
For `COC(=O)c1nc(-c2ccc(I)c(F)c2C)cc(N)c1Cl` [Compound 25, methyl 4-amino-3-chloro-6-(3-fluoro-4-Iodo-2-methylphenyl)picolinate], the pest or weed control at 70 g/ha was 0 to 29%.

Same assay, conditions: Viola tricolor, post-emergence, 336 h, VIOTR: wild pansy (Viola tricolor), application rate 140 (kg ai/ha; footnote: g ai/ha), read-out: Visual Growth Reduction (%) 14 Days After Application VIOTR
`COC(=O)c1nc(-c2ccc(I)c(F)c2C)cc(N)c1Cl` [Compound 25, methyl 4-amino-3-chloro-6-(3-fluoro-4-Iodo-2-methylphenyl)picolinate] showed a pest or weed control at 140 g/ha of 0 to 29%.

Reference: patent publication US10765114B2, “4-amino-6-(pyridyl and 2-substitutedphenyl)-picolinates and 6-amino-2-(pyridyl and 2-substitutedphenyl)-pyrimidine-4-carboxylates and their use as herbicides” (Dow AgroSciences LLC, priority 2013, dated 2020)
